Measured values taken from patent publication US11072628B2, “Nucleoside analogues for the treatment of parasitic infections” (UNIVERSITEIT GENT, priority 2017, dated 2021).
Where two headings read alike, the source gives them in different places.

Legend:
T. brucei Squib 427 = assay: In vitro drug susceptibility, T. brucei Squib 427 (resazurin); assay type: cell-based, Trypanosoma brucei brucei; conditions: Trypanosoma brucei
Method: (§1) All trypanosome strains were cultured in the standard HMI-9 medium supplemented with 10% fetal bovine serum (FBS) at 37° C. in a 5% CO2 atmosphere.

[1] = system: T. cruzi Tulahuen CL2 β galactosidase strain; assay: T. cruzi Tulahuen CL2 β galactosidase strain on MRC-5SV2 cells (CPRG); assay type: cell-based, Trypanosoma cruzi; conditions: Trypanosoma cruzi, TULAHUEN, MRC-5 SV2
Method: All cultures and assays were conducted at 37° C./5% CO2. […] The results were expressed as % reduction in parasite burdens compared to control wells from which an EC50 was calculated.

[2] = system: T. b. rhodesiense STIB-900; assay: In vitro drug susceptibility, T. b. rhodesiense STIB-900 (resazurin); assay type: cell-based, Trypanosoma brucei rhodesiense; conditions: Trypanosoma brucei, RHODESIENSE
Method: as §1

[3] = Cytotoxicity against MRC-5 fibroblasts; conditions: human, MRC-5 fibroblasts, cytotoxicity
Method: Cytotoxicity was assayed against MRC-5 fibroblasts. Results are depicted in Tables 4 and 5.

[4] = system: T. vaginalis trophozoites (metronidazole susceptible G3 strain); assay: Trichomonas vaginalis in vitro assay; assay type: cell-based; conditions: Trichomonas vaginalis, average of 2-5 independent replicates
Method: T. vaginalis trophozoites (metronidazole susceptible G3 strain) were grown in vitro in modified Diamond's media (MDM) with 10% heat inactivated horse serum (HIHS) acquired from Gibco Life Technologies. After medium preparation, the pH was adjusted to 6.3-6.4 employing 1.0 M aq. HCl. Parasites cultures were passaged every day by taking 1 mL of cell culture into a 25 mL bottle of fresh media to ensure the cells were kept at the appropriate concentration of ˜2×10^6 cells/mL. The culture flasks were filled completely and tightly capped to provide the cells with an anaerobic environment. The parasites were maintained in incubation at 37° C. When culturing in multiwell plates, the plates were sealed with Nescofilm® and inserted in BD GasPak EZ pouches (BD Diagnostics, UK) in order to create anaerobic conditions. Assays were performed with 5×10^4 trophozoites/well (100 μL) to which compound dilutions were added (100 μL). Outside wells of columns and rows were filled with 200 μL of sterile water. Plates were sealed with Nescofilm® and incubated under anaerobic conditions as described above. After 24 h, 30 μL of assay dye solution (resorufin) was added, and incubated for 1-2 h before being read using Fluostar Optima (BMG Labtech, UK) at an excitation wavelength of 544 nm and an emission wavelength of 620 nm.

[5] = read-out: T. brucei brucei EC50, Table 1, average of 2-4 independent determinations
[6] = Table 2, average of 2-3 independent replicates
[7] = read-out: T.b. brucei EC50, Table 4, average of 2-6 independent determinations
[8] = Table 5, average of 2-4 independent replicates

Structure (SMILES)	melting point	EC50 (T. brucei Squib 427; [5]) [µM]	EC50 [1, 6] [µM]	EC50 ([2]; read-out: T. brucei rhod. EC50) [µM]	EC50 ([3]; MRC-5 EC50, Table 1) [µM]	EC50 ([3]; MRC-5 EC50, Table 2) [µM]	EC50 ([4]; Table 3) [µM]	EC50 ([4]; Table 6) [µM]	EC50 (T. brucei Squib 427; [7]) [µM]	EC50 [1, 8] [µM]	EC50 ([2]; read-out: T.b. rhod. EC50) [µM]	EC50 ([3]; MRC-5 EC50, Table 4) [µM]	EC50 ([3]; MRC-5 EC50, Table 5) [µM]	EC50 (T. brucei Squib 427; read-out: EC50 against T. brucei) [µM]
CCc1cn([C@@H]2O[C@H](CO)C[C@H]2O)c2ncnc(N)c12 [FH9613, 4-amino-5-ethyl-N7-(3′-deoxy-β-D-ribofuranosyl)-pyrrolo[2,3-d]pyrimidine]	200 °C	1.78	19.7	0.65	> 64	> 64	–	–	–	–	–	–	–	–
Nc1ncnc2c1c(-c1cccc(Cl)c1)cn2[C@@H]1O[C@H](CO)C[C@H]1O [FH10641, 4-amino-5-(3-chlorophenyl)-N7-(3′-deoxy-β-D-ribofuranosyl)-pyrrolo[2,3-d]pyrimidine]	130 °C	7.13	0.97	0.55	36.1	36.1	–	–	–	–	–	–	–	–
Cc1ncc([N+](=O)[O-])n1CCO [Metronidazole, reference compound]	–	–	–	–	–	–	0.53	–	–	–	–	–	–	–
Nc1ncnc2c1c(-c1ccc(C(F)(F)F)cc1)cn2[C@@H]1O[C@H](CO)C[C@H]1O [FH9576, 4-amino-5-(4-trifluoromethylphenyl)-N7-(3′-deoxy-β-D-ribofuranosyl)-pyrrolo[2,3-d]pyrimidine]	–	19.5	0.53	6.6	40	40	0.26	–	–	–	–	–	–	–
CCCCC#Cc1cn([C@@H]2O[C@H](CO)C[C@H]2O)c2ncnc(N)c12 [FH9611, 4-amino-5-hex-1-yn-N7-(3′-deoxy-β-D-ribfuranosyl)-pyrrolo[2,3-d]pyrimidine]	161 to 163 °C	0.32	9.7	0.06	> 64	> 64	–	–	–	–	–	–	–	–
Cc1cc(-c2cn([C@@H]3O[C@H](CO)C[C@H]3O)c3ncnc(N)c23)ccc1Cl [FH10648, 4-amino-5-(3-methyl-4-chlorophenyl)-N7-(3′-deoxy-β-D-ribofuranosyl)-pyrrolo[2,3-d]pyrimidine]	125 °C	6.4	0.21	2.09	16.7	16.7	–	–	–	–	–	–	–	–
Nc1ncnc2c1c(-c1ccc([N+](=O)[O-])cc1)cn2[C@@H]1O[C@H](CO)C[C@H]1O [FH9582, 4-amino-5-(4-nitrophenyl)-N7-(3′-deoxy-β-D-ribofuranosyl)-pyrrolo[2,3-d]pyrimidine]	254 °C (dec.)	2.1	1.2	0.32	> 64	> 64	–	–	–	–	–	–	–	–
Nc1ncnc2c1c(Br)cn2[C@@H]1O[C@H](CSCCO)C[C@H]1O [FH9591, 4-amino-5-bromo-N7-(3′-deoxy-5′-thio-ethan-2-ol-β-D-ribofuranosyl)-pyrrolo[2,3-d]pyrimidine]	164 °C	5.05	33.8	0.71	26.5	26.5	–	–	–	–	–	–	–	–
CCc1ccc(-c2cn([C@@H]3O[C@H](CO)C[C@H]3O)c3ncnc(N)c23)cc1 [FH10647]	114 °C	7.58	1.04	1.5	18.4	18.4	–	–	–	–	–	–	–	–
Nc1ncnc2c1c(CCc1ccccc1)cn2[C@@H]1O[C@H](CO)C[C@H]1O [FH10661, 4-amino-5-(phenylethyl)-N7-(3′-deoxy-β-D-ribfuranosyl)-pyrrolo[2,3-d]pyrimidine]	76 °C	8.26	> 64	0.67	> 64	> 64	–	–	–	–	–	–	–	–
Nc1ncnc2c1c(-c1ccc(Cl)cn1)cn2[C@@H]1O[C@H](CO)[C@@H](O)[C@H]1O [MS1039, 4-amino-5-(5-chloro-pyrid-2-yl)-N7-(β-D-ribofuranosyl)-pyrrolo[2,3-d]pyrimidine]	–	–	–	–	–	–	–	0.86	8.97	2.39	4.6	> 64	> 64	–
COc1cc(-c2cn([C@@H]3O[C@H](CO)C[C@H]3O)c3ncnc(N)c23)ccc1Cl [FH10649, 4-amino-5-(3-methoxy-4-chlorophenyl)-N7-(3′-deoxy-β-D-ribofuranosyl)-pyrrolo[2,3-d]pyrimidine]	208 °C	2.01	0.06	0.54	17.2	17.2	–	–	–	–	–	–	–	–
CCCC#Cc1cn([C@@H]2O[C@H](CO)C[C@H]2O)c2ncnc(N)c12 [FH9610, 4-amino-5-pent-1-yn-N7-(3′-deoxy-β-D-ribfuranosyl)-pyrrolo[2,3-d]pyrimidine]	127 to 129 °C	0.32	4.1	0.04	> 64	> 64	–	–	–	–	–	–	–	–
Nc1ncnc2c1c(-c1ccccc1)cn2[C@@H]1O[C@H](CO)[C@@H](O)[C@H]1O [TH1004, 4-amino-5-phenyl-N7-(β-D-ribofuranosyl)-pyrrolo[2,3-d]pyrimidine]	–	–	–	–	–	–	–	0.43	32.3	3.44	4.1	56.2	56.2	–
OC[C@@H]1C[C@@H](O)[C@H](n2cc(Br)c3cncnc32)O1 [FH9539, 5-bromo-N7-(3′-deoxy-β-D-ribofuranosyl)-pyrrolo[2,3-d]pyrimidine]	186 °C	0.51	36.8	0.91	21	21	–	–	–	–	–	–	–	–
Nc1ncnc2c1c(-c1cc(Cl)cc(Cl)c1)cn2[C@@H]1O[C@H](CO)[C@@H](O)[C@H]1O [FH8460, 4-amino-5-(3,5-dichlorophenyl)-N7-(β-D-ribofuranosyl)-pyrrolo[2,3-d]pyrimidine]	219 °C	–	–	–	–	–	–	–	8.17	1.72	3.66	> 64	> 64	< 10
Nc1ncnc2c1c(-c1cc(Cl)cc(Cl)c1)cn2[C@@H]1O[C@H](CO)C[C@H]1O [FH10642, 4-amino-5-(3,5-dichlorophenyl)-N7-(3′-deoxy-β-D-ribofuranosyl)-pyrrolo[2,3-d]pyrimidine]	211 °C	7.7	0.55	5.45	30.2	30.2	–	–	–	–	–	–	–	–
Nc1ncnc2c1c(C#Cc1ccccc1)cn2[C@@H]1O[C@H](CO)C[C@H]1O [FH8504, 4-amino-5-phenylethynyl-N7-(3′-deoxy-β-D-ribofuranosyl)-pyrrolo[2,3-d]pyrimidine]	120 °C	0.3	3.7	0.12	9.6	9.6	–	–	–	–	–	–	–	–
Nc1ncnc2c1c(C(F)(F)F)cn2[C@@H]1O[C@H](CO)C[C@H]1O [FH9526, 4-amino-5-trifluoromethyl-N7-(3′-deoxy-β-D-ribofuranosyl)-pyrrolo[2,3-d]pyrimidine]	167 °C	0.94	2.33	1.88	0.66	0.66	–	–	–	–	–	–	–	–
Nc1ncnc2c1c(/C=C/c1ccccc1)cn2[C@@H]1O[C@H](CO)C[C@H]1O [FH10660, 4-amino-5-(E-styryl)-N7-(3′-deoxy-β-D-ribfuranosyl)-pyrrolo[2,3-d]pyrimidine]	170 °C	1.76	6.28	0.17	49.4	49.4	–	–	–	–	–	–	–	–
Cc1ccc(-c2cn([C@@H]3O[C@H](CO)C[C@H]3O)c3ncnc(N)c23)cc1Cl [FH10644, 4-amino-5-(3-chloro-4-methylphenyl)-N7-(3′-deoxy-β-D-ribofuranosyl)-pyrrolo[2,3-d]pyrimidine]	135 °C	4.74	0.27	5.99	17.9	17.9	–	–	–	–	–	–	–	–
C#Cc1cn([C@@H]2O[C@H](CO)C[C@H]2O)c2ncnc(N)c12 [FH8505, 4-amino-5-ethynyl-N7-(3′-deoxy-β-D-ribofuranosyl)-pyrrolo[2,3-d]pyrimidine]	192 °C	0.005	1.66	0.0005	–	–	–	–	–	–	–	–	–	–
Nc1ncnc2c1c(-c1ccc(Cl)c(Cl)c1)cn2[C@@H]1O[C@H](CO)C[C@H]1O [FH8513]	–	1.8	0.06	1.5	13.6	13.6	0.33	–	–	–	–	–	–	–
